Experiment [1] in a line: Displacement of [3H]-cytisine from nAChR in rat brain membranes. The format is cell membranes.
Experiment [2] concerns the target Neuronal acetylcholine receptor subunit alpha-7 (Homo sapiens, UniProt P36544). The experiment is described as follows: Displacement of [125I]-alpha-bungarotoxin from alpha7 nAchR expressed in rat GH4C1 cells. The experiment is classed as cell-based, GH4-C1.
For experiment [3], the target named is Neuronal acetylcholine receptor; alpha3/beta4 (Homo sapiens, UniProt P30926+P32297). The experiment is described as follows: Displacement of [3H]-epibatidine from alpha3beta4 nAChR expressed in human IMR32 cells after 2 hrs by scintillation counting. The experiment is classed as cell-based, IMR-32. On the technique in general: Displacement assays read how much labelled ligand stays bound in the presence of the test substance.
Chain of Neuronal acetylcholine receptor; alpha3/beta4 (P30926 whole entry): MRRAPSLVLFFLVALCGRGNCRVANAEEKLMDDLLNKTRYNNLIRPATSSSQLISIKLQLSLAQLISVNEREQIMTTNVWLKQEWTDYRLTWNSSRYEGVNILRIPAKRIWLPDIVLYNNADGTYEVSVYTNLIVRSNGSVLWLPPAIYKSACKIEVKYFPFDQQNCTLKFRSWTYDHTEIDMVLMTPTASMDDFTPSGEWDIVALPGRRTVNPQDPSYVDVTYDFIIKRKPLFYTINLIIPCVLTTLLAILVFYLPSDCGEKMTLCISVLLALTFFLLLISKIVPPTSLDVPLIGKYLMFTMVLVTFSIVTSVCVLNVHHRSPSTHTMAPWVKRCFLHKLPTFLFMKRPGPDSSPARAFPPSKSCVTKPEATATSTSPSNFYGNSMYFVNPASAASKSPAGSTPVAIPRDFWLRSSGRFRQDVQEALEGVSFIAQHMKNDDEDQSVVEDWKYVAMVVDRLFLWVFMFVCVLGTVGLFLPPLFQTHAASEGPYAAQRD
Chain of Neuronal acetylcholine receptor; alpha3/beta4 (P32297 whole entry): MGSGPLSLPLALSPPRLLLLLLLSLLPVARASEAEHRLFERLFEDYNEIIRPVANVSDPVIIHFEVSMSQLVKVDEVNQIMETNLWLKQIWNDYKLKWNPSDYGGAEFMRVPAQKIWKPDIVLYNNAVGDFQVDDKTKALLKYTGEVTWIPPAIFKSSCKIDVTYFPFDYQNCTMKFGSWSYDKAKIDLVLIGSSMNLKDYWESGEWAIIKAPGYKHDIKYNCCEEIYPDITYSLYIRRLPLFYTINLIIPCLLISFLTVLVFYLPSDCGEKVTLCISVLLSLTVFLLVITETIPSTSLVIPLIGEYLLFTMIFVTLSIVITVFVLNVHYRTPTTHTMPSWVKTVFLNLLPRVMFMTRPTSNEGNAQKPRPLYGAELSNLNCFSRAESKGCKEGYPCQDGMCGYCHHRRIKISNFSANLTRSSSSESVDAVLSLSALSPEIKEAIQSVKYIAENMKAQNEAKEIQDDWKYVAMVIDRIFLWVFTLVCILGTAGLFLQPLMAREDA

Experiment [4] concerns the target Acetylcholine receptor subunit alpha (Homo sapiens, UniProt P02708). The experiment is described as follows: Binding affinity to alpha1 nAchR expressed in human TE671 cells. The experiment is classed as cell-based, TE-671.

The text below walks through data of ChEMBL document CHEMBL1821660, “Synthesis and biological activity of a novel class nicotinic acetylcholine receptors (nAChRs) ligands structurally related to anatoxin-a” (Bioorg Med Chem Lett, 2011).

In general, IC50 refers to the point on the concentration scale where inhibition reaches its midpoint. A high value points to a need for much substance.

Chain of Acetylcholine receptor subunit alpha (P02708 whole entry): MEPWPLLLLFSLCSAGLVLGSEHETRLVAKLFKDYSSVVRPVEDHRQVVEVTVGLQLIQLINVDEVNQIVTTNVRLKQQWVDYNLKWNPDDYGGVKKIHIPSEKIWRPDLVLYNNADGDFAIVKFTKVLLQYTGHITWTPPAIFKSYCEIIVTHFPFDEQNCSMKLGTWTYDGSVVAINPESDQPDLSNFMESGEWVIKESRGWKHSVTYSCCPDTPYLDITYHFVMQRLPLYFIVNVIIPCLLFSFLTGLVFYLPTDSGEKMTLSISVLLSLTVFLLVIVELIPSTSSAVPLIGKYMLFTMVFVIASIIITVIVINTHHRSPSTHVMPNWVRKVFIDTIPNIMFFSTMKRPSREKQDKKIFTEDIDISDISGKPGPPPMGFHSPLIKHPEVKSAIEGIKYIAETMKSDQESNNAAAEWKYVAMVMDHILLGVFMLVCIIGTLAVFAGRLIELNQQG
Chain of Neuronal acetylcholine receptor subunit alpha-7 (P36544 whole entry): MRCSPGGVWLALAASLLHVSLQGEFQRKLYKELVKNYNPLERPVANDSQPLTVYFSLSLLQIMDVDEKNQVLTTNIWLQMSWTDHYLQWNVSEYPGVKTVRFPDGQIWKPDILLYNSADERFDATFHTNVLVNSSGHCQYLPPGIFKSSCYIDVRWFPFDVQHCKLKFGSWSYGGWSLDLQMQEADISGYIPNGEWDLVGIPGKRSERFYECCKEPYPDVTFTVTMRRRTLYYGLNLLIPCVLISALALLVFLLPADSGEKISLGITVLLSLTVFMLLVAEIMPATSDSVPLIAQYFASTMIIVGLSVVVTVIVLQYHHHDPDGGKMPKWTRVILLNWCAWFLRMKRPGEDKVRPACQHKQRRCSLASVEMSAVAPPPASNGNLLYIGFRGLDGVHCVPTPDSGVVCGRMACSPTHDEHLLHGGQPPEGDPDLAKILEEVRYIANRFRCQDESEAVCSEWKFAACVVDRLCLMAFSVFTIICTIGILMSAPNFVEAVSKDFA

`Cc1cc(C2=CCC[C@@H]3CC[C@H]2N3)on1` (racemic): the 50% inhibitory concentration (IC50) in experiment [1] is 0.0091 µM; in experiment [2] it was over 10 µM; in experiment [3], over 10 µM.
Consider `CCc1cc(C2=CCC[C@@H]3CC[C@H]2N3)on1` (racemic), for which the IC50 in experiment [1] stood at 0.0122 µM; in experiment [4], 4.2 µM; in experiment [2], 4.6 µM; in experiment [3], 1.8 µM.
With `CC(C)c1cc(C2=CCC[C@@H]3CC[C@H]2N3)on1` (racemic), the IC50 is 2.1 µM in experiment [1], 5.5 µM in experiment [4], 15.1 µM in experiment [2] and 2.9 µM in experiment [3].
Consider `C1=C(c2cc(-c3ccccc3)no2)[C@H]2CC[C@@H](CC1)N2` (racemic), for which the IC50 in experiment [1] is over 10 µM; in experiment [4], 7.8 µM; in experiment [2], over 10 µM; in experiment [3] it was 1.05 µM.
For `CCOC(=O)c1cc(C2=CCC[C@@H]3CC[C@H]2N3)on1` (racemic), the half-maximal inhibitory concentration (IC50) in experiment [1], in experiment [4], in experiment [2] and in experiment [3] was over 10 µM in each case.
Take `Cc1cc([C@@]2(O)CCC[C@@H]3CC[C@H]2N3)on1` (racemic): the IC50 in experiment [1], in experiment [4], in experiment [2] and in experiment [3] was over 10 µM in each case.
Consider `Cc1cc([C@]2(O)CCC[C@@H]3CC[C@H]2N3)on1` (racemic), for which the IC50 in experiment [1], in experiment [4], in experiment [2] and in experiment [3] was over 10 µM in each case.
Regarding `Cc1noc2c1[C@H]1CC[C@@H](CC2)N1` (racemic), the IC50 in experiment [1], in experiment [4], in experiment [2] and in experiment [3] was over 10 µM each time.
On to `CCOC(=O)c1noc2c1[C@H]1CC[C@@H](CC2)N1` (racemic), for which the half-maximal inhibitory concentration (IC50) in experiment [1], in experiment [4], in experiment [2] and in experiment [3] was over 10 µM throughout.
Regarding `CN1CCC[C@H]1c1cccnc1` [NICOTINE], in experiment [1], the IC50 turned out to be 0.0047 µM.
